The source made the active and inactive calls. The calls are words filed in the database; no cut-off is given here.

Series [1] relates to MV4-11. In words: cells. The note with it: Homo sapiens, MV4-11, 72 h.
Series [2] is described as follows: Toxicity in zebrafish embryo assessed as mortality at 10 uM measured 120 hpf by fluorescence microscopy. Also noted: species or system Danio rerio. The note with it: in vivo.
The target of series [3] is Glycogen synthase kinase-3 alpha (Homo sapiens) (UniProt P49840). In words: Inhibition of human N-terminal His-tagged GSK3alpha expressed in baculovirus expression system at 1 uM relative to control.
Chain of Glycogen synthase kinase-3 alpha (Homo sapiens) (P49840 2-483 limits assumed): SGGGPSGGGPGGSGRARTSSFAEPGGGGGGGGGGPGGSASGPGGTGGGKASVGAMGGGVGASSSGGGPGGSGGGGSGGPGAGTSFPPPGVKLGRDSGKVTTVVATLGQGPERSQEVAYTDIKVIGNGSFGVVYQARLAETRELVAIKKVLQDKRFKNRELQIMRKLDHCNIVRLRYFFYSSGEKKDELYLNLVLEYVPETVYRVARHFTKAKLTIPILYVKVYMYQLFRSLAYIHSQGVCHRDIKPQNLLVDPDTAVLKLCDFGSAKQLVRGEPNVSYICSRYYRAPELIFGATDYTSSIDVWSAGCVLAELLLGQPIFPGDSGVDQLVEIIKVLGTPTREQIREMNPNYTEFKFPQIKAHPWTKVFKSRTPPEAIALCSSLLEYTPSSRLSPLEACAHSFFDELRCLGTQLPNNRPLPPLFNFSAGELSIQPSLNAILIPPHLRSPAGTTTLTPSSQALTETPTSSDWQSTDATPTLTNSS
For series [4], the target named is Glycogen synthase kinase-3 beta (Homo sapiens) (UniProt P49841). In words: Inhibition of human N-terminal His-tagged GSK3beta expressed in baculovirus expression system at 1 uM relative to control.
Chain of Glycogen synthase kinase-3 beta (Homo sapiens) (P49841 whole entry, looked up): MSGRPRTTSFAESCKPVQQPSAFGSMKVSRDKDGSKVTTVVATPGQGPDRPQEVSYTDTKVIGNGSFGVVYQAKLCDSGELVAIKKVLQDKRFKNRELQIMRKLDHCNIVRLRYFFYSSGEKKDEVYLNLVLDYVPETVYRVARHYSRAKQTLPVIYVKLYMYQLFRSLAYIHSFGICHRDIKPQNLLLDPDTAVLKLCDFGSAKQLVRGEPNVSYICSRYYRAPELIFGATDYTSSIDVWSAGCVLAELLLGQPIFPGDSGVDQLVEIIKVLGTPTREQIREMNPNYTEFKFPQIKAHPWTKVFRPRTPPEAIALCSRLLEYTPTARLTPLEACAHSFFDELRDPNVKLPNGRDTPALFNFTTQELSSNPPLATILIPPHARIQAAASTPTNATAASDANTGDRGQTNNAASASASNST
Series [5] is described as follows: physchem. The conditions noted are these: potassium phosphate buffer with reduced glutathione.
The test system of series [6] is T1, Receptor-type tyrosine-protein kinase FLT3 (Homo sapiens), P36888 [D835Y].
T1 sequence (whole entry): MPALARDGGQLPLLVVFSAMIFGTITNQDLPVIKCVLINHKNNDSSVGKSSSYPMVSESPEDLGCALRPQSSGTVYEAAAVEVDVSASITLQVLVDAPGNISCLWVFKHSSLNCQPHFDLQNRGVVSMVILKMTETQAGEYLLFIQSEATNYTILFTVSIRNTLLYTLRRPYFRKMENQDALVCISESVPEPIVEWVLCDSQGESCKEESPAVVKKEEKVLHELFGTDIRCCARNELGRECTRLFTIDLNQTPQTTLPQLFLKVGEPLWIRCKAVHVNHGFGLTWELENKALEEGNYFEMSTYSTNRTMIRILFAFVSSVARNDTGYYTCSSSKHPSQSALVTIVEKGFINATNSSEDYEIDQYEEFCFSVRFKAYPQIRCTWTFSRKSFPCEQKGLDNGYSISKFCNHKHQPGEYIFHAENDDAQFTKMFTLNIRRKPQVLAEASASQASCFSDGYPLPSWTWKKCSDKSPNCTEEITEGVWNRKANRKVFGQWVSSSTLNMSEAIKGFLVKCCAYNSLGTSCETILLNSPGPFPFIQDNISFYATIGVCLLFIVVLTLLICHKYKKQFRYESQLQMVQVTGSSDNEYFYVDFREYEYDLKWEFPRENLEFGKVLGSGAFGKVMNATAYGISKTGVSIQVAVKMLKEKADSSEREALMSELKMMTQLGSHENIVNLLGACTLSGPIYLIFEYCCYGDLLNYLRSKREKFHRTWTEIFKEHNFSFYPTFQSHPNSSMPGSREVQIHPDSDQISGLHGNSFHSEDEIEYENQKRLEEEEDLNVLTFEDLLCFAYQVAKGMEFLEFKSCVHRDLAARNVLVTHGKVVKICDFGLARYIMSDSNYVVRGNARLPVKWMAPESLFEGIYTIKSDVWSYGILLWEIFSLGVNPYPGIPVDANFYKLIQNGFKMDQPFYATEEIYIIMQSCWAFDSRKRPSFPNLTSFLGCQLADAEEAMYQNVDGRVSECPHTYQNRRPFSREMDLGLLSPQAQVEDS
In words: Inhibition of covalent binding of (Z)-N-(2-(2-(4-(2,8-Diethyl-5,5-difluoro-1,3,7,9-tetramethyl-5H-4lambda4,5lambda4-dipyrrolo[1,2-c:2',1'-f ][1,3,2]diazaborinin-10-yl)phenoxy)-acetamido)ethyl)-2,4-dimethyl-5-((2-oxo-5-(vinylsulfon-amido)-indolin-3-ylidene)methyl)-1H-pyrrole-3-carboxamide to recombinant human FLT3 D835Y mutant (571 to 993 residues) expressed in baculovirus expression system at […] by Western blot analysis.

For series [7], the system named is THP-1. In words: cells. The conditions noted are these: Homo sapiens, THP-1, 72 h.
Series [8] deals with Jurkat. In words: cells. The conditions noted are these: Homo sapiens, 72 h.
The test system of series [9] is T1, Receptor-type tyrosine-protein kinase FLT3 (Homo sapiens), P36888 [D835Y]. In words: Irreversible inhibition of recombinant human FLT3 D835Y mutant (571 to 993 residues) expressed in baculovirus expression system at 1 uM preincubated for 5 to 30 mins followed by myelobasic protein addition measured after 120 mins using BODIPY-tagged compounds in presence of ATP by ADP-Glo assay relative to control.

For series [10] the test system is unchanged. In words: Covalent binding affinity to recombinant human FLT3 D835Y mutant (571 to 993 residues) expressed in baculovirus expression system at 50 uM by Western blot analysis.
Series [11] is described as follows: Drug uptake in zebrafish embryo gastrointestine at 10 uM starting 1 dpf and measured at 4 dpf by fluorescence microscopy. The series is classed as ADME, Danio rerio, Gastrointestinal tract. The conditions noted are these: in vivo.
The subject of series [12] is MV4-11. In words: Cytotoxicity in human MV4-11 cells assessed as inhibition of cellular viability at 0.5 to 5000 nM incubated for 2 to 8 hrs followed by compound washout by CellTiter-Glo luminescent assay. The series is classed as functional, cell-based.
Series [13] deals with T1, Receptor-type tyrosine-protein kinase FLT3 (Homo sapiens), P36888 [D835Y]. In words: Covalent binding affinity to recombinant human FLT3 D835Y mutant (571 to 993 residues) expressed in baculovirus expression system at 100 uM by Western blot analysis.
The subject of series [14] is MOLM-14. In words: cells. The conditions noted are these: Homo sapiens, MOLM-14, 72 h.

Consider `CCS(=O)(=O)Nc1ccc2c(c1)/C(=C/c1ccc[nH]1)C(=O)N2`, for which the IC50 in series [1] was above 1 nM.

For the molecule `CC(=O)Nc1ccc(Nc2nccc(Nc3cc(C4CC4)[nH]n3)n2)cc1`, in [1], the concentration for half-maximal inhibition (IC50) is above 1 nM.

For `O=C(CCl)Nc1ccc2c(c1)/C(=C/c1ccc[nH]1)C(=O)N2`, the IC50 in series [1] came to 72 nM.

Turning to `CCN(CC)CCNC(=O)c1c(C)[nH]c(/C=C2\C(=O)Nc3ccc(NS(=O)(=O)CC)cc32)c1C`, the IC50 in series [1] worked out at 643 nM.

Regarding `O=C(CBr)Nc1ccc2c(c1)/C(=C/c1ccc[nH]1)C(=O)N2`, the Activity entry in series [2] was “Toxic”. Further, the IC50 in series [1] was 653 nM.

Regarding `c1ccc(Nc2nccc(Nc3cc(C4CC4)[nH]n3)n2)cc1`, the Activity result in series [2] was “Toxic”. For the same molecule, the inhibition in series [3] stood at 74%; in series [4], 76%. In addition, in series [1], the IC50 stood at 230 nM.

As to `CCS(=O)(=O)Nc1ccc(Nc2nccc(Nc3cc(C4CC4)[nH]n3)n2)cc1`, half-maximal inhibition in series [1] (IC50) was put at 129 nM.

For `O=C(CCl)Nc1cccc(Nc2nccc(Nc3cc(C4CC4)[nH]n3)n2)c1`, the 50% inhibitory concentration (IC50) in [1] came to 175 nM.

For the molecule `C#CC(=O)Nc1cccc(Nc2nccc(Nc3cc(C4CC4)[nH]n3)n2)c1`, the IC50 in series [1] was above 1 nM.

Regarding `O=C(CF)Nc1ccc2c(c1)/C(=C/c1ccc[nH]1)C(=O)N2`, the Activity result in series [2] is “Toxic”. Moreover, the half-maximal inhibitory concentration (IC50) in [1] is 845 nM. For the same molecule, the half-life at 10 µM in series [5] is above 24 h.

In [1], `C=CC(=O)Nc1ccc2c(c1)/C(=C/c1ccc[nH]1)C(=O)N2` gave an IC50 above 1 nM.

The molecule `c1ccc(-c2cnc3[nH]cc(-c4ccccc4)c3c2)cc1` came in with an IC50 in series [1] above 1 nM.

On to `O=C(O)Cc1c[nH]c2ccccc12`, for which, in [6], the inhibition result was “Active”.

On to `CC(=O)Nc1ccc2c(c1)/C(=C/c1ccc[nH]1)C(=O)N2`, for which the Activity entry in [2] is given as “Non-Toxic”. In series [1], this molecule gave an IC50 above 1 nM.

`C#CC(=O)Nc1ccc(Nc2nccc(Nc3cc(C4CC4)[nH]n3)n2)cc1`: in series [1], the concentration for half-maximal inhibition (IC50) was above 1 nM.

As for `C=CS(=O)(=O)Nc1ccc2c(c1)/C(=C/c1ccc[nH]1)C(=O)N2`, the IC50 in [1] is 67 nM.

Take `C=CC(=O)Nc1cccc(Nc2nccc(Nc3cc(C4CC4)[nH]n3)n2)c1`: in [1], the IC50 amounted to 787 nM.

Take `O=C1Nc2ccccc2/C1=C/c1ccccc1`: the IC50 in [1] is above 1 nM.

As for `C=CS(=O)(=O)Nc1cccc(Nc2nccc(Nc3cc(C4CC4)[nH]n3)n2)c1`, the concentration for half-maximal inhibition (IC50) is 2.3 nM in [1], 172 nM in series [7] and 44 nM in [8].

On to `CC1=CC(C)=[N+]2C1=Cc1ccc(CCC(=O)NCCNC(=O)c3c(C)[nH]c(/C=C4\C(=O)Nc5ccc(NC(=O)CCl)cc54)c3C)n1[B-]2(F)F`, for which the inhibition in [9] came out at 55%. Further, in series [10], the result was Active. Besides, the Drug uptake entry in [11] was “Active”.

Turning to `CC(=O)Nc1cccc(Nc2nccc(Nc3cc(C4CC4)[nH]n3)n2)c1`, the 50% inhibitory concentration (IC50) in [1] is above 1 nM.

For `CC1(COc2ccc3c(c2)ncn3-c2ccc3cccc(N4CCC(N)CC4)c3n2)COC1` [CRENOLANIB], the Activity result in series [2] is “Toxic”. Also, the result in [12] was Active. Besides, the figures for the concentration for half-maximal inhibition (IC50) in [1], in [7] and in [8] were 12 nM, above 1000 nM and above 1000 nM, respectively.

In the case of `C=CS(=O)(=O)Nc1ccc(Nc2nccc(Nc3cc(C4CC4)[nH]n3)n2)cc1`, the results for the half-maximal inhibitory concentration (IC50) in series [1], in series [7] and in [8] were 58 nM, 514 nM and 298 nM, respectively.

In series [1], `CCC(=O)Nc1cccc(Nc2nccc(Nc3cc(C4CC4)[nH]n3)n2)c1` yielded an IC50 above 1 nM.

In turn, `c1ccc(-c2cnc3ccccn23)cc1` yielded an IC50 in series [1] above 1 nM.

For `O=C1Nc2ccccc2/C1=C/c1ccc[nH]1`, the figures for the inhibition in series [3] and in series [4] were 12% and -6%, respectively.

For the molecule `COc1cc(O)c2c(c1)[C@H]1O[C@@H]1C[C@H](O)[C@H](O)C(=O)/C=C\C[C@H](C)OC2=O` [HYPOTHEMYCIN], in series [2], the Activity result is given as “Toxic”. The half-maximal inhibitory concentration (IC50) is 15 nM in series [1], above 1000 nM in [7] and above 1000 nM in series [8].

Consider `O=C(CCl)Nc1ccc(Nc2nccc(Nc3cc(C4CC4)[nH]n3)n2)cc1`, for which half-maximal inhibition in [1] (IC50) required 141 nM.

`C=CS(=O)(=O)Nc1ccc2c(c1)/C(=C/c1[nH]c(C)c(C(=O)NCCNC(=O)COc3ccc(C4=C5C(C)=C(CC)C(C)=[N+]5[B-](F)(F)n5c(C)c(CC)c(C)c54)cc3)c1C)C(=O)N2`: the inhibition in series [9] was determined as 89%. The result in series [10] and in [13] was Active. Moreover, the Drug uptake result in series [11] is given as “Active”.

Turning to `CCC1=C(C)C2=C(c3ccc(OCC(=O)NCCNC(=O)c4c(C)[nH]c(/C=C5\C(=O)Nc6ccc(NC(=O)C(F)(F)F)cc65)c4C)cc3)c3c(C)c(CC)c(C)n3[B-](F)(F)[N+]2=C1C`, the inhibition in series [9] came out at 34%; in [10], 7%. The Activity in series [13] was 18%.

Regarding `CCN(CC)CCNC(=O)c1c(C)[nH]c(/C=C2\C(=O)Nc3ccc(NC(C)=O)cc32)c1C`, the IC50 in series [1] was above 1000 nM.

The molecule `CCC(=O)Nc1ccc(Nc2nccc(Nc3cc(C4CC4)[nH]n3)n2)cc1` yielded an IC50 in series [1] above 1 nM.

In the case of `CCC(=O)Nc1ccc2c(c1)/C(=C/c1ccc[nH]1)C(=O)N2`, the IC50 in series [1] is above 1 nM.

In [1], `C=CC(=O)Nc1ccc(Nc2nccc(Nc3cc(C4CC4)[nH]n3)n2)cc1` returned a half-inhibitory concentration (IC50) of 521 nM.

With `CC(=O)Nc1ccc2c(c1)/C(=C/c1[nH]c(C)c(C(=O)NCCNC(=O)CCc3ccc4n3[B-](F)(F)[N+]3=C(C)C=C(C)C3=C4)c1C)C(=O)N2`, the inhibition in [9] was found to be 23%. Besides, the result in series [10] and in series [13] was inactive.

`CCS(=O)(=O)Nc1cccc(Nc2nccc(Nc3cc(C4CC4)[nH]n3)n2)c1` registered an IC50 in series [1] of 489 nM.

For the molecule `CCN(CC)CCNC(=O)c1c(C)[nH]c(/C=C2\C(=O)Nc3ccc(NC(=O)CCl)cc32)c1C`, the Activity result in series [2] is recorded as “Non-Toxic”. In addition, the IC50 in [1] is 21 nM; in series [7], above 1000 nM; in series [8] it was above 1000 nM; in series [14], 26.4 nM. For the same molecule, the half-life at 10 µM in series [5] is 3.63 h.

Consider `C#CC(=O)Nc1ccc2c(c1)/C(=C/c1ccc[nH]1)C(=O)N2`, for which the IC50 in series [1] was 709 nM.

The record behind these values is ChEMBL document CHEMBL4400537, “Virtual Screening Identifies Irreversible FMS-like Tyrosine Kinase 3 Inhibitors with Activity toward Resistance-Conferring Mutations” (J Med Chem, 2019).
